# Source: patent US20250313560A1, “Novel bicyclic benzylamido pyridine derivatives as SOS1 inhibitors” (Boehringer Ingelheim International GmbH, priority 2024, published 2025)
# Like-named read-outs stand apart in the source and are kept apart here.
# Experiments:
# [1] = test system: ERK phosphorylation in NCI-H358 SOS2 KO cells (KRAS G12C); test: Erk phosphorylation assay; type: cell-based, human; details: EGF stimulated, average of at least two measurements, read-out: pERK IC50
# Summary of the method: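 NCI-H358 SOS2 KO cells (KRAS G12C) in DMEM/2% FBS were pretreated 50 min with compound, then stimulated with EGF (approx. 8 ng/mL) for 10-15 min. pERK1/2 (Thr202/Tyr204) measured in lysates by AlphaLISA SureFire; IC50 from variable-slope fit, averaged over at least two measurements.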
# SOS1 and KRAS G12C = SOS1 and KRAS G12C (Homo sapiens (Human), UniProt Q07889); test: KRAS::SOS1 AlphaScreen binding assay (KRAS G12C); details: average of at least two measurements
# Sequence of SOS1 and KRAS G12C (Q07889 564-1049, stated change not applied): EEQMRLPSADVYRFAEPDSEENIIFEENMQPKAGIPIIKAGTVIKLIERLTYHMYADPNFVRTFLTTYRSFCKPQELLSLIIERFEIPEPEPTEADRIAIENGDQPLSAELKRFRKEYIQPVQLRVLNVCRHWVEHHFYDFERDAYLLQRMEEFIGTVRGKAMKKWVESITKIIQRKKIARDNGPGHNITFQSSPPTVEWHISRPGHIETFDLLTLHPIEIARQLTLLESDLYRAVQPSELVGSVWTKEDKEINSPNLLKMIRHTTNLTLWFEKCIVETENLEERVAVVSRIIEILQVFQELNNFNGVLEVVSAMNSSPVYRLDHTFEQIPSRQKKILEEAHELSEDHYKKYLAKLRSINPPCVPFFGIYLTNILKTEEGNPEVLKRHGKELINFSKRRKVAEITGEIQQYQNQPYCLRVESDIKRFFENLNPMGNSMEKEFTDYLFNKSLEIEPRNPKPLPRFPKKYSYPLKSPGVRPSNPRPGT
# SOS1 and KRAS G12D = SOS1 and KRAS G12D (Homo sapiens (Human), UniProt Q07889); test: KRAS::SOS1 AlphaScreen binding assay (KRAS G12D); details: average of at least two measurements
# Sequence of SOS1 and KRAS G12D (Q07889 564-1049, stated change not applied): as above
# P450 3A4 = P450 3A4 (Homo sapiens (Human), UniProt P08684); test: Cytochrome P450 isoenzyme inhibition assay (P450 3A4, midazolam); type: in vitro ADME; details: human liver microsomes, Midazolam as substrate; read-out: CYP3A4 inhibition IC50
# Sequence of P450 3A4 (P08684 whole entry): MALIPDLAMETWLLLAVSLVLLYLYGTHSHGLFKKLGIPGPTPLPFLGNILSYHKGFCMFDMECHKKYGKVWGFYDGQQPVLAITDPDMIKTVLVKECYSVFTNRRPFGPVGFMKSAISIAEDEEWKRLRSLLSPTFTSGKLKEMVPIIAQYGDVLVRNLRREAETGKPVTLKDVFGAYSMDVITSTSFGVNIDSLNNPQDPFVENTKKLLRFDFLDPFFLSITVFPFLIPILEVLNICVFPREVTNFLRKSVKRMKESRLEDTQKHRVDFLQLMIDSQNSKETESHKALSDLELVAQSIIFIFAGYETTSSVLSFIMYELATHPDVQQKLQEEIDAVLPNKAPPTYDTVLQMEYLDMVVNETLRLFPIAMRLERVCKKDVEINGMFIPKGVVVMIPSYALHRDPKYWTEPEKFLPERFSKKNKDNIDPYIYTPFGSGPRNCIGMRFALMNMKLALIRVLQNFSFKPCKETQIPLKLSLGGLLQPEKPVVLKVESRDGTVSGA
# Summary of the method: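 Midazolam (5 μM) hydroxylation by human liver microsomes (0.1 mg/ml) in 0.1 M TRIS with 5 mM MgCl2, started with 1 mM NADPH. Five compound concentrations in duplicate, e.g. top 50 μM with 1:4 dilutions. Metabolite quantified by LC-MS/MS against internal standard; IC50 from inhibition relative to no-compound control.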
# human hepatocytes = test: Metabolic stability in human hepatocytes; details: 1 μM test compound, 50% human serum, percentage of liver blood flow
# Method: The metabolic degradation of a test compound is performed with hepatocytes in suspension. After recovery from cryopreservation, human hepatocytes are diluted in Dulbecco's modified eagle medium (supplemented with 3.5 μg glucagon/500 mL, 2.5 mg insulin/500 mL, 3.75 mg hydrocortisone/500 mL, 50% human serum) to obtain a final cell density of 1.0×10^6 cells/mL. Following a preincubation in a cell culture incubator (37° C., 10% CO2), test compound dissolved in DMSO is mixed with the hepatocyte suspension, resulting in a final test compound concentration of 1 μM and a final DMSO concentration of 0.05%.
# The cell suspension is incubated at 37° C. (cell culture incubator, horizontal shaker) and samples are removed from the incubation after 0, 0.5, 1, 2, 4 and 6 hours. Samples are quenched with acetonitrile (containing internal standard) and pelleted by centrifugation. The supernatant is transferred to a deep-well plate and prepared for analysis of decline of parent compound by HPLC-MS/MS.
# The percentage of remaining test compound is calculated using the peak area ratio (test compound/internal standard) of each incubation time point relative to the time point 0 peak area ratio. The log-transformed data are plotted versus incubation time, and the absolute value of the slope obtained by linear regression analysis is used to estimate in vitro half-life (T1/2).
# CL_[sequence]_IN VIVO[mL/min/kg]=(CL_[sequence][μL/min/10^6cells]×hepatocellularity[10^6cells/g liver]×liver factor[g/kg body weight])/1000
# Hepatic in vivo blood clearance (CL) is predicted according to the well-stirred liver model considering an average liver blood flow (QH) of 20.7 mL/min/kg:
# CL[mL/min/kg]=CL_[sequence]_IN VIVO[mL/min/kg]×hepatic blood flow[mL/min/kg]/(CL_[sequence]_IN VIVO[mL/min/kg]+hepatic blood flow[mL/min/kg])
# Results are expressed as percentage of hepatic blood flow:
# QH[%]=CL[mL/min/kg]/hepatic blood flow[mL/min/kg])
# CYP3A4 = CYP3A4 (Homo sapiens (Human), UniProt P08684); test: Mechanism-based inhibition of CYP3A4 assay (MBI 3A4); type: in vitro ADME; details: human liver microsomes, midazolam substrate, hydroxy-midazolam formation after 30 min preincubation relative to 0 min; for inhibition at 30 min: human, probe midazolam 15 μM (hydroxy-midazolam formation), read-out: MBI inhibition % ctrl. [%] with MDZ
# Sequence of CYP3A4 (P08684 whole entry): as above
# Summary of the method: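 Human liver microsomes (0.2 mg/mL) were preincubated with compound at 0, 5 or 25 μM plus 1 mM NADPH for 0, 10 or 30 min, then diluted 1:10 and incubated 10 min with 15 μM midazolam. Hydroxy-midazolam was measured by LC/MS-MS; readout is formation after 30 min relative to 0 min preincubation (%).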
# [2] = Homo sapiens, NCI-H358, NCI-H358 SOS2 KO cells
SMILES,"IC50 [1, 2] [nM]",IC50 (SOS1 and KRAS G12C) [nM],IC50 (SOS1 and KRAS G12D) [nM],IC50 (P450 3A4) [nM],Hepatic clearance - QH[%] in human hepatocytes (human hepatocytes) [%],inhibition at 30 min (CYP3A4) [%],IC50 ([1]; NCI-H358 SOS2 KO cells) [nM],MBI inhibition % ctrl. [%] with MDZ (CYP3A4) [%]
"C[C@@H](NC(=O)c1cc(N2CCC(N3CCCC(C)(O)C3)CC2)c2ncnn2c1)c1cccc(C(F)(F)F)c1F (single isomer, unassigned) [Example E47a]",162,96,99,> 50000,30,97,–,–
C[C@@H](NC(=O)c1cc(N2CCC(N3CC[C@H](CO)C3)CC2)c2ncnn2c1)c1cccc(C(F)(F)F)c1F [Example E26],147,86,78,> 50000,8,92,–,–
C[C@@H](NC(=O)c1cc(N2CCC(N3C[C@@H](O)C[C@@H]3C)CC2)c2ncnn2c1)c1cccc(C(F)F)c1F [Example E12],110,30,24,> 50000,12,79,–,–
C[C@@H](NC(=O)c1cc(N2CCC(N(C)CC(C)(C)O)CC2)c2ncnn2c1)c1cccc(C(F)F)c1F [Example E7],246,50,43,> 50000,31,106,–,–
"C[C@@H](NC(=O)c1cc(N2CCC(NC3COCC3O)CC2)c2ncnn2c1)c1cccc(C(F)(F)F)c1F (single isomer, unassigned) [Example trans-E42a]",–,26,26,> 50000,18,–,183,101
"C[C@@H](NC(=O)c1cc([C@H]2CC[C@H](N3CCC(F)C(O)C3)CC2)c2ncnn2c1)c1cccc(C(F)(F)F)c1F (single isomer, unassigned) [Example trans-E70b]",–,36,42,> 50000,19,107,169,–
C[C@H](O)CNC1CCN(c2cc(C(=O)N[C@H](C)c3cccc(C(F)(F)F)c3F)cn3ncnc23)CC1 [Example E40],277,50,53,> 50000,22,75,–,–
C[C@@H](NC(=O)c1cc(N2CCC(N3C[C@@H](O)C4(CC4)C3)CC2)c2ncnn2c1)c1cccc(C(F)(F)F)c1F [Example E30],296,59,51,> 50000,18,103,–,–
"C[C@@H](NC(=O)c1cc(N2CCC(NC3CCCC3(C)O)CC2)c2ncnn2c1)c1cccc(C(F)(F)F)c1F (single isomer, unassigned) [Example trans-E53b]",–,33,35,> 50000,28,91,287,–
C[C@@H](NC(=O)c1cc([C@H]2CC[C@H](N3CCC[C@H](O)C3)CC2)c2nncn2c1)c1cccc(C(F)F)c1F [Example E81],258,25,24,> 50000,15,93,–,–
C[C@@H](NC(=O)c1cc(N2CCC(N3CCC[C@@H](O)C3)CC2)c2ncnn2c1)c1cccc(C(F)F)c1F [Example E22],187,48,49,> 50000,19,100,–,–
"C[C@@H](NC(=O)c1cc(N2CCC(NC3COCC3O)CC2)c2ncnn2c1)c1cccc(C(F)(F)F)c1F (single isomer, unassigned) [Example trans-E42b]",–,37,36,> 50000,16,–,153,94
C[C@@H](NC(=O)c1cc(N2CCC(N3CCC[C@@H]3CO)CC2)c2ncnn2c1)c1cccc(C(F)F)c1F [Example E1],118,33,30,> 50000,17,98,–,–
Cc1nc2c([C@H]3CC[C@H](N4CCCC4)CC3)cc(C(=O)N[C@H](C)c3cccc(C(F)F)c3F)cn2n1 [Example E84],174,38,37,> 50000,10,103,–,–
"C[C@@H](NC(=O)c1cc(N2CCC3CCNC3C2)c2ncnn2c1)c1cccc(C(F)(F)F)c1F (single isomer, unassigned) [Example cis-E52b]",–,71,70,> 50000,14,98,40,–
C[C@@H](NC(=O)c1cc([C@H]2CC[C@H](N3CC[C@](C)(O)C3)CC2)c2ncnn2c1)c1cccc(C(F)F)c1F [Example E59],166,42,41,> 50000,15,99,–,–
C[C@@H](NC(=O)c1cc([C@]2(O)CC[C@@H](N3CC[C@@H](F)C3)CC2)c2ncnn2c1)c1cccc(C(F)F)c1F [Example E65],165,90,93,> 50000,38,102,–,–
C[C@@H](NC(=O)c1cc(N2CCC(N3CCC(O)C(C)(O)C3)CC2)c2ncnn2c1)c1cccc(C(F)(F)F)c1F (stereo partly drawn) [Example cis-E29],261,56,46,> 50000,24,95,–,–
Cc1nc2c(N3CCC4(CCCN4)CC3)cc(C(=O)N[C@H](C)c3cccc(C(F)(F)F)c3F)cn2n1 [Example E78],223,43,41,> 50000,5,103,–,–
C[C@@H](NC(=O)c1cc(N2CCC3(CCCCN3C)CC2)c2ncnn2c1)c1cccc(C(F)(F)F)c1F [Example E46],162,34,31,> 50000,9,98,–,–
C[C@@H]1C[C@H](O)CN1C1CCN(c2cc(C(=O)N[C@H](C)c3cccc(C(F)(F)F)c3F)cn3ncnc23)CC1 [Example E24],–,56,46,> 50000,22,–,325,99
C[C@@H](NC(=O)c1cc(N2CCC(N3CC[C@@H](CO)C3)CC2)c2ncnn2c1)c1cccc(C(F)(F)F)c1F [Example E27],73,77,73,> 50000,9,90,–,–
CO[C@H]1CCN(C2CCN(c3cc(C(=O)N[C@H](C)c4cccc(C(F)F)c4F)cn4ncnc34)CC2)C1 [Example E10],212,74,67,> 50000,29,97,–,–
C[C@@H](NC(=O)c1cc(N2CCC(N3CC[C@@H](CO)C3)CC2)c2ncnn2c1)c1cccc(C(C)(F)F)c1F [Example E73],136,64,64,> 50000,24,103,–,–
C[C@H](CO)NC1CCN(c2cc(C(=O)N[C@H](C)c3cccc(C(F)(F)F)c3F)cn3ncnc23)CC1 [Example E54],186,39,31,> 50000,12,85,–,–
C[C@@H](NC(=O)c1cc([C@H]2CC[C@H](N3CC[C@H](O)C3)CC2)c2ncnn2c1)c1cccc(C(F)(F)F)c1F [Example E69],218,28,23,> 50000,<4,85,–,–
